Experimental data reported in patent publication US8372455B2, “Cosmetic composition with anti-free radical activity” (LVMH Recherche, priority 2006, dated 2013).

System: human keratinocytes (HaCaT)
Experiment: Antioxidizing power (free radical scavenging) in H2O2-treated keratinocytes with the DCFH-DA fluorescent probe
Type: cell-based
Conditions: 24 h treatment, 0.05 mg/ml ebselen, extract of Emblica, extract of Edelweiss, 0.1 μg/ml tocotrienol, idebenone, N-acetylcysteine, N=6, FIG. 1
Excerpt: To do this, the inventors used an in vitro test on a model of human keratinocytes, which consisted in the in situ generation of free radicals in the presence and absence of substances with anti-free radical activity, and then in quantification, with the aid of a fluorescent probe of the type dichlorofluorescein diacetate (DCFH-DA), of the free radicals still present in the cells. This probe is well known to those skilled in the art and its use makes it possible to measure the amount of free radicals present as a function of the fluorescence signal emitted.
The antioxidizing power according to the invention, which corresponds in practice to the free radical scavenging power of each substance with anti-free radical activity or an association of such substances, is obtained using the following formula (A): antioxidizing power=([…])×100 (A) in which: Δ control=difference in fluorescence values between the control not treated with an active substance or an association of such substances, and the control treated with the reference oxidizing agent hydrogen peroxide (H2O2); Δ test=difference in fluorescence values between the control treated with an active substance or an association of active substances, and the control treated with H2O2.
In practice, the value of Δ control represents the situation where the oxidation is greatest. This value is to be considered as that of 100% oxidation. It is then possible, by taking the ratio ([…])×100, to determine the percentage oxidation in the presence of an active substance or an association of such active substances. The antioxidizing power can then be calculated as the difference from the maximum value of 100, corresponding to application of the above formula. […]
The fluorescence emitted is then directly proportional to the concentration of free radicals that has reacted in the medium.
Thus, in the presence of a substance with anti-free radical activity, the DCFH present in the medium encounters fewer free radicals and the value of the fluorescence signal emitted decreases as a consequence. […]

CC(=O)N[C@@H](CS)C(=O)O [N-acetylcysteine]
protective power (antioxidizing power) of individual substances with anti-free radical activity: weakly protective

COC1=C(OC)C(=O)C(CCCCCCCCCCO)=C(C)C1=O [idebenone, 2,3-dimethoxy-6-(10-hydroxydecyl)-5-methyl-1,4-benzo-quinone]
protective power (antioxidizing power) of individual substances with anti-free radical activity: weakly protective

alpha-tocotrienol
protective power (antioxidizing power) of individual substances with anti-free radical activity: relatively high protective power
